Data as given in patent US8173695B2, “Kappa selective opioid receptor antagonist” (Eli Lilly and Company, priority 2008, dated 2012).
Values joined by “and” are separate entries in the source; they are usually repeats but may differ in a detail not shown here. Equal entries are not always repeated.

Tests used:
Male NIH-Swiss mice = test: Mouse forced swim test; type: in vivo; conditions: for immobility in mouse forced swim test, Mean: 60 min
Description: This test evaluates the effect of test compound on mice mobility as a measure of antidepressant effect. The less immobility compared to vehicle, the more pronounced the antidepressant-like effect.
Male, NIH-Swiss mice (25-30 g) (Harlan Sprague-Dawley, Indianapolis, Ind., USA) are housed in a vivarium for at least one week prior to use with water and rodent chow freely available during this acclimation period. Animals are removed from the vivarium to the testing area in their home cages and allowed to adapt to the new environment for at least one hour before testing.
Mice are placed in clear plastic cylinders (diameter: 10 cm; height: 25 cm) filled with 6 cm of water (22-25° C.) for six minutes. The duration of immobility during the last four minutes of the six minutes test period is scored. A mouse is recorded as immobile when floating motionless or making only those movements necessary to keep its head above water.
The test compound is administered p.o. 1 hour prior to testing at 1.0 mg/kg, 3.0 mg/kg and 10.0 mg/kg, n of 8 per group in a vehicle of 5 ml of sterile water and 30 ml of diluted (10×) lactic acid. Imipramine is evaluated as a positive control, 15 mg/kg: p, 30 min. prior to testing n of 4.
A second study is carried out evaluating 1 and 3 mg/kg doses of the compound of Example 1A alone and in combination with 5 mg/kg of imipramine. Imipramine alone is evaluated at 5 and 15 mg/kg doses and a vehicle control is included in the study. For the combination studies, the compound of Example 1A is administered p.o. 30 minutes prior to administration of imipramine i.p. and the test initiated 30 minutes following imipramine administration. An n of 8 per group is evaluated for all groups. For the evaluations of the compound of Example 1A alone, testing is initiated 60 minutes following administration and testing of imipramine only treated animals is initiated 30 minutes following administration.

[1] = molecular target: T1, kappa receptors (striatum) (Rattus norvegicus, UniProt P34975); test: Opioid receptor occupancy (RO) in rat brain, tracer GR103545; type: in vivo; conditions: 5.5 hrs following oral administration
T1 construct: dose-dependent level of kappa receptor occupancy in the striatum; from tissue; host or cells: striatum of living Sprague Dawley rats

[2] = molecular target: T2, delta receptors (striatum) (Rattus norvegicus, UniProt P33533); test: Opioid receptor occupancy (RO) in rat brain, tracer naltriben; type: in vivo
T2 construct: from tissue; host or cells: striatum of living Sprague Dawley rats

[3] = Plasma exposure after oral dosing, LC/MS/MS; type: in vivo; conditions: male, Sprague Dawley (Harlan), rat plasma, read-out: Plasma Levels
Description: (§1) Male Harlan Sprague Dawley rats are treated with the compound of Example 1A of the present invention using a 3% lactic acid/water oral formulation at doses of […], 0.3, 1, 3, 10 and 30 mg/kg. […] The increasing levels of kappa receptor occupancy are driven by roughly proportional increases in plasma and brain exposure of the compound of Example 1A of the present invention up to a dose of 30 mg/kg.
Plasma exposure of Example 1A of the present invention in the rat following administration is determined from plasma isolated from trunk blood collected at the time of tissue collection for receptor occupancy. Levels of the compound of Example 1A are detected by LC/MS/MS (API 4000, MDS Sciex) and quantified from a standard curve of Example 1A prepared in vehicle treated rat plasma.

Sprague Dawley rats [4] = test: Prepulse inhibition, reversal of U69593 induced disruption of PPI; type: in vivo, rat
mu receptors (striatum) = molecular target: T3, mu receptors (striatum) (Rattus norvegicus, UniProt P33535); test: Opioid receptor occupancy (RO) in rat brain, tracer naltrexone; type: in vivo
T3 construct: from tissue; host or cells: striatum of living Sprague Dawley rats

[5] = system: alcohol preferring (P) rats; test: P rat 12 hr ethanol drinking; type: in vivo; conditions: p<0.05 versus vehicle
Description: The test animals are selectively-bred alcohol preferring (P) rats. These rats voluntarily consume more than 5 g/kg of ethanol per day and meet all of the perceived criteria for an animal model of alcoholism. They attain blood alcohol contents between 50-200 mg %; they will operant respond to obtain ethanol; they consume ethanol for pharmacological effects and not taste, smell or caloric properties; and they develop metabolic and physiological tolerance and eventually dependence with chronic ethanol access.
Female P rats are obtained from a breeding facility at the Indiana University Medical Center in Indianapolis, Ind., USA. Rats are individually housed in an environmentally controlled facility and maintained on a 12 hr light/dark cycle (lights off at 1500 hours).
All drugs are mixed fresh prior to use and administered in a volume of 1 mL/kg. […]
Following a 4-day acclimation to the colony, rats receive homecage access to a bottle of EtOH (10% v/v; Ancare, Bellmore, N.Y.) in addition to the standard bottle of water. […] Consumption of EtOH and water are monitored for approximately 6-9 months prior to drug testing. Food and fluid intake are measured via force transduction with a PC-controlled Drinking & Feeding Monitoring System (TSE Systems, Bad Homburg, Germany). Consumption of food, water, and 15% (v/v) EtOH are continuously monitored for 12 hrs following drug or vehicle administration. […]

Sprague Dawley rats [6] = test: Prepulse inhibition, reversal of morphine induced disruption of PPI; type: in vivo, rat
[7] = Brain (striatum) exposure levels after oral dosing, LC/MS/MS; type: in vivo; conditions: male, Sprague Dawley (Harlan), rat striatum
Description: as §1
Exposure levels of the compound of Example 1A in the rat striatum following administration were determined in the same samples used to quantify the level of opioid receptor occupancy. Levels of Example 1A are detected by LC/MS/MS (API 4000, MDS Sciex) and quantified from a standard curve of Example 1A prepared in rat brain homogenate.

T2 sequence (P33533 whole entry): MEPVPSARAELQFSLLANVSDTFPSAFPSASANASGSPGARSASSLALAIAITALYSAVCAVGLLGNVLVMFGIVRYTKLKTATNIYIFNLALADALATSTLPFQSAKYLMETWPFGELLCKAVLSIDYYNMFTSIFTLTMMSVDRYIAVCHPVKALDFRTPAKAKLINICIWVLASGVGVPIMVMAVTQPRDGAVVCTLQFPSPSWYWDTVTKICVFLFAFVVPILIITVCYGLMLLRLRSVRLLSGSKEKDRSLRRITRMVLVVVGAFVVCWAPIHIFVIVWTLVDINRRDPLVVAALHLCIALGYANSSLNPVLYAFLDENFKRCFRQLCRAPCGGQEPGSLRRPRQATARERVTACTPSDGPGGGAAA
T3 sequence (P33535 whole entry): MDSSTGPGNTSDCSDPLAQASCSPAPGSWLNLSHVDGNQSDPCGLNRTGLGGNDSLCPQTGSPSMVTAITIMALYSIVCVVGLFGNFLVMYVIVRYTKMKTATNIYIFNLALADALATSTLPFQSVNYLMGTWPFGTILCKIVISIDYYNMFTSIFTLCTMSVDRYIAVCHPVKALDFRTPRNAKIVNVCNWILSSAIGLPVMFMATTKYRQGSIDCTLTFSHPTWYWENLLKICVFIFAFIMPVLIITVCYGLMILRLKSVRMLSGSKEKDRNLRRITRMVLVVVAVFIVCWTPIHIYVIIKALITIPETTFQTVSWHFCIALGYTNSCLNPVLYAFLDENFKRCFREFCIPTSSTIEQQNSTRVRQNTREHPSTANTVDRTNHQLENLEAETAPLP
T1 sequence (P34975 whole entry): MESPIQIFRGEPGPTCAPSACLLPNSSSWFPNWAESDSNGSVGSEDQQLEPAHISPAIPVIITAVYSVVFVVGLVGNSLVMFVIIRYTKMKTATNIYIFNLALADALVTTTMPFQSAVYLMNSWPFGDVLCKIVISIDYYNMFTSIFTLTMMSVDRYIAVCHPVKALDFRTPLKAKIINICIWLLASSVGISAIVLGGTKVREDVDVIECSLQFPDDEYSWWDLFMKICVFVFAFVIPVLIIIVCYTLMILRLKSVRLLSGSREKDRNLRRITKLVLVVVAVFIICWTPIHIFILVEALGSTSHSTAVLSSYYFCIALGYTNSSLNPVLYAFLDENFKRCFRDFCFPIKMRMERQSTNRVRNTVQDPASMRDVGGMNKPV

- ED50 [1]: 0.45 mg/kg
- ED50 ([2]; oral): > 30 mg/kg
- delta receptor occupancy ([2]; oral doses up to 30 mg/kg): no significant occupancy
- concentration at 5.5 h ([3]; 0.1 mg/kg, oral dose .1): 1.17 ng/g
- concentration at 5.5 h ([3]; 0.3 mg/kg, oral dose .3): 2.27 ng/g
- concentration at 5.5 h ([3]; 1 mg/kg, oral dose 1): 4.63 ng/g
- concentration at 5.5 h ([3]; 3 mg/kg, oral dose 3): 15.4 ng/g
- concentration at 5.5 h ([3]; 10 mg/kg, oral dose 10): 65.2 ng/g
- concentration at 5.5 h ([3]; 30 mg/kg, oral dose 30): 106 ng/g
- ED50 (mu receptors (striatum); oral): > 30 mg/kg
- mu receptor occupancy (mu receptors (striatum); oral doses up to 30 mg/kg): no significant occupancy
- concentration at 5.5 h ([7]; 0.1 mg/kg, oral dose .1 mg/kg): 15.3 ng/g
- concentration at 5.5 h ([7]; 0.3 mg/kg, oral dose .3 mg/kg): 7.23 ng/g
- concentration at 5.5 h ([7]; oral dose 1 mg/kg): 19.6 ng/g
- concentration at 5.5 h ([7]; oral dose 3 mg/kg): 39.2 ng/g
- concentration at 5.5 h ([7]; oral dose 10 mg/kg): 171 ng/g
- concentration at 5.5 h ([7]; oral dose 30 mg/kg): 266 ng/g
SMILES: Cc1cc(C)cc([C@@H]2CCCN2Cc2ccc(Oc3ccc(C(N)=O)cc3F)cc2)c1 (single isomer, unassigned) [Example 1A]
- immobility in mouse forced swim test, Mean (Male NIH-Swiss mice; Example 1A 1 mg/kg p.o.): 151.53 s
- immobility in mouse forced swim test, Mean (Male NIH-Swiss mice; Example 1A 3 mg/kg p.o.): 172.02 s
- antidepressant-like activity (immobility), in words (Male NIH-Swiss mice; first study, 10.0 mg/kg p.o. 1 hour prior to testing, p<0.05 versus vehicle, Dunnett's test): demonstrates antidepressant-like activity
- % Inhibition (PPI), individual rats (Sprague Dawley rats [4]; 0.1 mg/kg Example 1A p.o./3.0 mg/kg U-69593 sc): 29.86% and 55.18% and 22.97% and 54.62% and 31.90% and 9.79% and 25.88% and 31.40%
- % Inhibition (PPI), individual rats (Sprague Dawley rats [4]; 0.3 mg/kg Example 1A p.o./3.0 mg/kg U-69593 sc): 33.74% and −1.75% and 52.00% and 47.01% and 0.52% and 42.14% and 66.71% and 71.91%
- % Inhibition (PPI), individual rats (Sprague Dawley rats [4]; 1.0 mg/kg Example 1A p.o./3.0 mg/kg U-69593 sc): 30.08% and 52.23% and 24.91% and 70.96% and 55.10% and 71.68% and 61.05% and 59.31%
- reversal of sensory motor gating deficits induced by the Kappa agonist U-69593 (Sprague Dawley rats [4]; rats, Table 6): can reverse
- amount of ethanol consumed ([5]; 1 mg/kg orally): decreased
- amount of ethanol consumed ([5]; 3 mg/kg orally): decreased
- % Inhibition (PPI), individual rats (Sprague Dawley rats [6]; 10 mg/kg Example 1A p.o./20 mg/kg morphine sc): 42.77% and 21.98% and 40.70% and 0.18% and 21.00% and 21.21% and 50.34% and 26.48% and 18.04% and 21.07% and 29.49% and 50.16% and 18.66% and 63.46%
- % Inhibition (PPI), individual rats (Sprague Dawley rats [6]; 30 mg/kg Example 1A p.o./20 mg/kg morphine sc): 30.93% and 6.85% and 16.56% and 54.32% and 18.94% and 45.40% and 42.78% and 46.29% and 39.26% and 20.35% and 40.02% and 8.61% and 57.12% and 41.32%
- reversal of sensory motor gating deficits induced by the Mu agonist morphine (Sprague Dawley rats [6]; rats, Table 7): can reverse
